The results in this text go back to US6525001B1, “Substituted pyrimidine and pyridine herbicides” (Mid-American Commercialization Corporation, priority 1997, dated 2003).

Common to all, as to type: in vivo
In assay [1] the test system is alexandergrass (Brachiaria plantaginea). The experiment in a line: Test E pre-/postemergence/post directed. As to conditions: PREEMERGENCE
Further details: key: 0 is no injury; 100 is complete control. The method, boiled down:
(§1)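 Greenhouse pot-grown plants; compound in non-phytotoxic solvent with surfactant applied preemergence to soil within one day of planting, postemergence at two to four leaf stage (three to twenty cm), or post-directed to plant base and soil. Visual injury rated 13 to 21 days after application, 0 (none) to 100 (complete control).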

The test system of assay [2] is common groundsel (Senecio vulgaris). The experiment in a line: Test E pre-/postemergence/post directed. On the set-up: key: 0 is no injury; 100 is complete control. In short, it runs like this:
as §1

For assay [3], the system named is barnyardgrass (Echinochloa crus-galli). Nature of the assay: Test E pre-/postemergence/post directed. As to conditions: PREEMERGENCE
In short, it runs like this:
as §1

Assay [4] deals with chickweed (Stellaria media). The experiment in a line: Test D. As to conditions: PREEMERGENCE
Assay [5] relates to lambsquarters (Chenopodium album). The experiment in a line: Test D. As to conditions: PREEMERGENCE
Assay [6] concerns sugar beet (Beta vulgaris). Nature of the assay: Test D. Further details: key: 0 is no effect; 100 is complete control. As to conditions: PREEMERGENCE
Assay [7] deals with spring wheat (Triticum aestivum). The experiment in a line: Test D. On the set-up: key to Plant response rating, Spring Wheat: 0 is no effect. To be noted: PREEMERGENCE
Assay [8] relates to winter barley (Hordeum vulgare). The experiment in a line: Test D. As to conditions: PREEMERGENCE
Assay [9] has as its system black nightshade (Solanum nigra). The experiment in a line: Test D. As to conditions: POSTEMERGENCE
Further details: key: 0 is no effect; 100 is complete control. Here is the method:
(§2) Compounds evaluated in this test were formulated in a non-phytotoxic solvent mixture which included a surfactant and applied to plants that were in the 1- to 4-leaf stage (postemergence application). A mixture of sandy loam soil and greenhouse potting mix in a 60:40 ratio was used for the postemergence test.
(§3) Plantings of these crops and weed species were adjusted to produce plants of appropriate size for the postemergence test. All plant species were grown using normal greenhouse practices. Crop and weed species include alfalfa (Medicago sativa), annual bluegrass (Poa annua), blackgrass (Alopecurus myosuroides), black nightshade (Solanum nigra), chickweed (Stellaria media), common poppy (Papaver rhoeas), deadnettle (Lamium amplexicaule), downy brome (Bromus tectorum), field violet (Viola arvensis), galium 2 (Galium aparine), green foxtail (Setaria viridis), Italian ryegrass (Lolium multiflorum), jointed goatgrass (Aegilops cylindrica), kochia (Kochia scoparia), lambsquarters (Chenopodium album), lentil (Lens culinaris), littleseed canarygrass (Phalaris minor), pea (Pisum sativum), potato (Solanum tuberosum), rape (Brassica napus), redroot pigweed (Amaranthus retroflexus), Russian thistle (Salsola kali), scentless chamomile (Matricaria inodora), sorghum (Sorghum vulgare), spring barley (Hordeum vulgare), sugar beet (Beta vulgaris), sunflower (Helianthus annuus), ivyleaf speedwell (Veronica hederaefolia), spring wheat (Triticum aestivum), winter wheat (Triticum aestivum), wild buckwheat (Polygonum convolvulus), wild mustard (Sinapis arvensis), wild oat (Avena fatua), windgrass (Apera spica-venti) and winter barley (Hordeum vulgare).
(§4) Treated plants and untreated controls were maintained in a greenhouse for approximately 21 to 28 days, after which all treated plants were compared to untreated controls and visually evaluated. Plant response ratings, summarized in Table D, are based upon a 0 to 100 scale where 0 is no effect and 100 is complete control. A dash response (−) means no test result.

The subject of assay [10] is common poppy (Papaver rhoeas). Nature of the assay: Test D. Further details: key: 0 is no effect; 100 is complete control. As to conditions: POSTEMERGENCE
The protocol:
as §2, §3, §4

The test system of assay [11] is sugar beet (Beta vulgaris). The experiment in a line: Test D. Further details: key: 0 is no effect; 100 is complete control. To be noted: POSTEMERGENCE
Here is the method:
as §2, §3, §4

Assay [12] has as its system wild mustard (Sinapis arvensis). Nature of the assay: Test D. On the set-up: key: 0 is no effect; 100 is complete control. As to conditions: POSTEMERGENCE
Here is the method:
as §2, §3, §4

The test system of assay [13] is galium 2 (Galium aparine). Nature of the assay: Test D. Further details: key: 0 is no effect; 10 is complete control. As to conditions: POSTEMERGENCE
The protocol: as §2, §3, §4

For another assay, the system named is kochia (Kochia scoparia). The experiment in a line: Test D. On the set-up: key: 0 is no effect; 10 is complete control. As to conditions: POSTEMERGENCE
Here is the method: as §2, §3, §4

Assay [14] relates to redroot pigweed (Amaranthus retroflexus). Nature of the assay: Test D. As to conditions: POSTEMERGENCE
Further details: key: 0 is no effect; 10 is complete control. Here is the method:
as §2, §3, §4

Assay [15] deals with wild buckwheat (Polygonum convolvulus). Nature of the assay: Test D. To be noted: POSTEMERGENCE
On the set-up: key: 0 is no effect; 10 is complete control. The protocol:
as §2, §3, §4

On to `Cc1cnc(-n2cnc(C(F)(F)F)c2)nc1Cc1cccc(C(F)(F)F)c1` [Compound 44], for which the “Plant response rating, Alexandergrass” value in assay [1] (Rate 32 g/ha) is recorded as 0.
In the case of `Cc1cnc(-n2ccc(C(F)(F)F)n2)nc1Cc1cccc(C(F)(F)F)c1` [Example 2, 5-methyl-4-[[3-(trifluoromethyl)phenyl]methyl]-2-[3-(trifluoromethyl)-1H-pyrazol-1-yl]pyrimidine], the “Plant response rating, Com. groundsel” value in assay [2] (POSTEMERGENCE, Rate 32 g/ha) is 0. Besides, the “Plant response rating, Barnyardgrass” value in assay [3] (Rate 32 g/ha) worked out at 20; in assay [3] (Rate 64 g/ha) it was 95.
Turning to `CCc1cnc(-n2ccc(C(F)(F)F)n2)nc1Cc1cccc(C(F)(F)F)c1` [Compound 46], the “Plant response rating, Alexandergrass” value in [1] (Rate 32 g/ha) and in [1] (Rate 64 g/ha) was 0 throughout. Further, the “Plant response rating, Chickweed” value in [4] (Rate 31 g/ha) and in [4] (Rate 62 g/ha) was 70 in each case. Further, the results for the “Plant response rating, Lambsquarters” value in assay [5] (Rate 31 g/ha) and in assay [5] (Rate 62 g/ha) were 65 and 70, respectively. For the same compound, the results for the “Plant response rating, Sugar beet” value in assay [6] (Rate 31 g/ha) and in [6] (Rate 62 g/ha) were 70 and 100, respectively. Further, the entries for the “Plant response rating, Spring Wheat” value in [7] (Rate 31 g/ha) and in assay [7] (Rate 62 g/ha) were 30 and 10, respectively. Also, the “Plant response rating, Barley (winter)” value in assay [8] (Rate 31 g/ha) amounted to 50; in assay [8] (Rate 62 g/ha), 2.
Regarding `Cc1cnc(-n2cnc(C(F)(F)F)n2)nc1C(=O)c1cccc(C(F)(F)F)c1` [Compound 67], the “Plant response rating, Com. groundsel” value in [2] (PREEMERGENCE, Rate 32 g/ha) stood at 0.
On to `COc1cnc(-c2ccc(C(F)(F)F)cc2)nc1Cc1cccc(C(F)(F)F)c1` [Compound 23], for which the “Plant response rating, Alexandergrass” value in [1] (Rate 32 g/ha) and in assay [1] (Rate 64 g/ha) was 0 throughout.
On to `Cc1cnc(-c2ccc(C(F)(F)F)cc2)nc1Cc1cccc(C(F)(F)F)c1` [Example 1, 5-methyl-2-[4-(trifluoromethyl)phenyl]-4-[[3-(trifluoromethyl)phenyl]methyl]pyrimidine], for which the results for the “Plant response rating, Blk nightshade” value in assay [9] (Rate 16 g/ha), in assay [9] (Rate 62 g/ha) and in [9] (Rate 125 g/ha) were 60, 50 and 50, respectively. The “Plant response rating, Common poppy” value in assay [10] (Rate 16 g/ha) was 50; in assay [10] (Rate 31 g/ha) it was 100; in assay [10] (Rate 62 g/ha) it was 100; in assay [10] (Rate 125 g/ha), 100. Moreover, the “Plant response rating, Sugar beet” value in [11] (Rate 16 g/ha) is reported as 45; in assay [11] (Rate 31 g/ha), 75; in [11] (Rate 62 g/ha), 90; in assay [11] (Rate 125 g/ha), 100; in [6] (Rate 31 g/ha), 30; in [6] (Rate 62 g/ha), 100. Moreover, the “Plant response rating, Sugar beet” value in [6] (Rate 125 g/ha) came to 85; in assay [6] (Rate 250 g/ha), 100. In addition, the “Plant response rating, Wild mustard” value in assay [12] (Rate 16 g/ha) came out at 85; in [12] (Rate 31 g/ha) it was 100; in [12] (Rate 62 g/ha), 100; in assay [12] (Rate 125 g/ha), 100. The “Plant response rating, Galium” value in [13] (Rate 16 g/ha) is on record as 0; in assay [13] (Rate 31 g/ha) it was 60; in assay [13] (Rate 62 g/ha) it was 70; in assay [13] (Rate 125 g/ha), 70. In addition, the “Plant response rating, Kochia” value in the assay on kochia (Kochia scoparia) (Rate 16 g/ha) was determined as 0; in the assay with kochia (Kochia scoparia) (Rate 31 g/ha) it was 60; with kochia (Kochia scoparia) (Rate 62 g/ha), 80; with kochia (Kochia scoparia) (Rate 125 g/ha) it was 70. Moreover, the “Plant response rating, Redroot pigweed” value in assay [14] (Rate 16 g/ha) is 0; in assay [14] (Rate 31 g/ha), 70; in assay [14] (Rate 62 g/ha) it was 70; in assay [14] (Rate 125 g/ha), 50. The “Plant response rating, Wild buckwheat” value in assay [15] (Rate 16 g/ha) came to 0; in [15] (Rate 31 g/ha), 0; in [15] (Rate 62 g/ha) it was 0; in assay [15] (Rate 125 g/ha), 20. Besides, the “Plant response rating, Barnyardgrass” value is reported as 5 in [3] (Rate 32 g/ha), 70 in [3] (Rate 64 g/ha) and 80 in [3] (Rate 125 g/ha). Besides, the “Plant response rating, Chickweed” value is recorded as 55 in assay [4] (Rate 31 g/ha), 85 in [4] (Rate 62 g/ha), 85 in assay [4] (Rate 125 g/ha) and 90 in assay [4] (Rate 250 g/ha). In addition, the “Plant response rating, Lambsquarters” value in assay [5] (Rate 31 g/ha) stood at 10; in assay [5] (Rate 62 g/ha) it was 70; in assay [5] (Rate 125 g/ha) it was 70; in [5] (Rate 250 g/ha) it was 70. The “Plant response rating, Spring Wheat” value in assay [7] (Rate 31 g/ha), in assay [7] (Rate 62 g/ha) and in assay [7] (Rate 125 g/ha) was 0 throughout. Besides, the “Plant response rating, Wheat (spring)” value in assay [7] (Rate 31 g/ha) was found to be 10; in [7] (Rate 62 g/ha), 10; in [7] (Rate 125 g/ha), 50; in [7] (Rate 250 g/ha), 30. For the same compound, the “Plant response rating, Barley (winter)” value in assay [8] (Rate 31 g/ha) was 10; in [8] (Rate 62 g/ha), 20; in assay [8] (Rate 125 g/ha), 30; in [8] (Rate 250 g/ha), 40.
On to `Cc1cnc(-c2ccc(C(F)(F)F)cc2)nc1Cc1cccc(OC(F)(F)F)c1` [Compound 15], for which the “Plant response rating, Com. groundsel” value in assay [2] (POSTEMERGENCE, Rate 125 g/ha) is 0. In addition, the entries for the “Plant response rating, Barnyardgrass” value in assay [3] (Rate 125 g/ha) and in assay [3] (Rate 250 g/ha) were 40 and 75, respectively.
